Reference: patent publication US9682978B2, “2,6,7 substituted purines as HDM2 inhibitors” (Merck Sharp & Dohme Corp., priority 2013, dated 2017)

Biological target: T1, HDM2 (Homo sapiens, UniProt Q00987)
T1 construct: Thioredoxin (N); made in house; host or cells: E. coli BL21(DE3)Rosetta (pET32a)
Test: HDM2 FRET assay (inhibition of p53 peptide binding to HDM2)
Settings: truncated HDM2 residues 17 to 125, 0.5 nM HDM2, 3 nM FITC labeled 8-mer peptide, two hour incubation
Source text: Methods: An HDM2 FRET assay was developed to assess the compounds' inhibitory activity towards binding of p53 protein. A truncated version of HDM2 with residues 17 to 125 (containing p53 binding surface, Science (1994) 265, 346-355), with N-terminal His and Thioredoxin tag was generated in pET32a expression vector and expressed in E. coli strain BL21(DE3)Rosetta. Protein was purified using Ni-affinity chromatography, followed by size exclusion chromatography using Superdex 75 26/60 column. To assess inhibition of p53 binding to HDM2, a FITC labeled 8-mer peptide (sequence: Ac-Phe-Arg-Dpr-Ac6c-(6-Br)Trp-Glu-Glu-Leu-NH2; Anal Biochem. 2004 Aug. 1; 331(1):138-46) with strong affinity towards p53 binding pocket of HDM2 was used. The HDM2 assay buffer contained 1× Phosphate Buffered Saline (Invitrogen, Cat#14190), 0.01% BSA (Jackson ImmunoResearch, Cat#001-000-162), 0.01% Tween-20. In the 1× assay buffer recombinant HDM2 protein, peptide and Lumi4-Tb Cryptate-conjugate mouse anti-6×HIS antibody (cisbio, Cat#Tb61HISTLB) were added and transferred to ProxiPlate PLUS (PerkinElmer, Cat#6008269), containing compounds so that final DMSO concentration is 0.1%. Final concentrations of reagents in the assay wells are 0.5 nM HDM2, 0.25 nM anti HIS (Tb label) antibody and 3 nM peptide. After two hour incubation at room temperature in a humidified chamber plates were read on EnVision plate reader with the following settings: excitation: UV, […], two emission filters: 520 nm and 495 nm respectively. Ratio of em520/em495 was used to calculate % inhibition and to obtain IC50 with 4-parameter logistic equation.
IC50 DETERMINATIONS: Dose-response curves were plotted from the inhibition data, from 10 point serial dilutions of inhibitory compounds. Concentration of compound was plotted against em520/Cem495 ratio signal. To generate IC50 values, the dose-response curves were fitted to a standard sigmoidal curve and IC50 values were derived by nonlinear regression analysis. IC50 values in the above table are rounded to the nearest integer.

T1 sequence (Q00987 17-125): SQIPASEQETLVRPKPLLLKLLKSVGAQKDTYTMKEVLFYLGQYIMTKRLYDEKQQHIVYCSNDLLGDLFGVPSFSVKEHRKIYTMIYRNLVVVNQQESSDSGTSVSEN

| SMILES | IC50 (Table 2) [µM] | IC50 (Table 1) [µM] | further results |
| --- | --- | --- | --- |
| C[C@H]1CC[C@H](Cn2cnc3nc(-c4noc(=O)[nH]4)nc(-c4cc(O)cc(Cl)c4)c32)CC1 [Example 2.7, 3-{6-(3-chloro-5-hydroxyphenyl)-7-[(trans-4-methylcyclohexyl)methyl]-7H-purin-2-yl}-1,2,4-oxadiazol-5(4H)-one] | 0.111 |  |  |
| C[C@H]1CC[C@H](Cn2cnc3nc(-c4noc(=O)[nH]4)nc(Oc4cccc(Cl)c4)c32)CC1 [Example 1.5, 3-{6-(3-chlorophenoxy)-7-[(trans-4-methylcyclohexyl)methyl]-7H-purin-2-yl}-1,2,4-oxadiazol-5(4H)-one] |  | 0.392 |  |
| C[C@@H](Nc1nc(-c2n[nH]c(=O)n2C)nc2ncn(C[C@H]3CC[C@H](C)CC3)c12)C1CCC1 [Example 1.16, 5-(6-{[(1R)-1-cyclobutylethyl]amino}-7-[(trans-4-methylcyclohexyl)methyl]-7H-purin-2-yl)-4-methyl-2,4-dihydro-3H-1,2,4-triazol-3-one] |  | 0.241 |  |
| C[C@H]1CC[C@H](Cn2cnc3nc(-c4noc(=O)[nH]4)nc(-c4ccnc(Cl)c4F)c32)CC1 [Example 2.2, 3-{6-(2-chloro-3-fluoropyridin-4-yl)-7-[(trans-4-methylcyclohexyl)methyl]-7H-purin-2-yl}-1,2,4-oxadiazol-5(4H)-one] | 0.134 |  |  |
| C[C@H]1CC[C@H](Cn2cnc3nc(-c4noc(=O)[nH]4)nc(-c4cccc(Br)c4)c32)CC1 [Example 2.8, 3-{6-(3-bromophenyl)-7-[(trans-4-methylcyclohexyl)methyl]-7H-purin-2-yl}-1,2,4-oxadiazol-5(4H)-one] | 0.157 |  |  |
| CC([C@H]1CC[C@H](C)CC1)n1cnc2nc(-c3noc(=O)[nH]3)nc(N[C@H](C)C3CCC3)c21 (stereo partly drawn) [Example 3.18, 3-(6-{[(1R)-1-cyclobutylethyl]amino}-7-[1-(trans-4-methylcyclohexyl)ethyl]-7H-purin-2-yl)-1,2,4-oxadiazol-5(4H)-one] |  |  | IC50 (Table 3): 0.017 µM |
